59 molecules from ChEMBL document CHEMBL3988181, “GlaxoSmithKline Published Kinase Inhibitor Set 2 Onchocerca lienalis Screening Data” can be followed below.

This assay can be described thus: GSK PKIS2: Screen against O. lienalis microfilariae, single point, at 3.1uM to assess reduction in motility. Compounds were also tested for cytotoxicity against Rhesus Monkey LLCMK2 cells. Format: functional, Onchocerca lienalis, LLC-MK2. The conditions noted are these: CELL_LINE LLCMK2; CELL_SUPPLIER ECACC; CONC 3.1 uM; ORGANISM_SUPPLIER Extracted from peri-umbilical skin obtained from naturally infected cattle in the UK; temperature 37 degree C.

Take `NCCC(NC(=O)c1cc(Br)c(-c2ccnc3[nH]ccc23)s1)c1ccccc1` (centres undefined): the “MOTILITY REDUCTION/CYTOTOXICITY” value is 13.4%. Under `CCCCc1nn2ncccc2c1-c1ccnc(NC2CC2)n1` stands 0%.

For the molecule `CCc1nc(-c2cccc(N(C)S(=O)(=O)c3ccccc3)c2)c(-c2ccnc(Nc3ccc(N4CCN(C(C)=O)CC4)nc3)n2)s1`, the “MOTILITY REDUCTION/CYTOTOXICITY” value was determined as 0%. Under `O=C(Nc1n[nH]c2nc(-c3nccs3)c(Br)cc12)C1CC1` stands 20%.

Consider `O=c1[nH]ccc2nc(N[C@@H]3CCNC3)nc(Nc3ccc4c(c3)S(=O)(=O)CC4)c12`, for which the “MOTILITY REDUCTION/CYTOTOXICITY” value came to 0%.

As to `FC(F)(F)c1ccc(-c2cc(-c3c[nH]nc3-c3ccccn3)ccn2)cc1`, the “MOTILITY REDUCTION/CYTOTOXICITY” value is reported as 0%. The value for `Nc1ncnc2[nH]c(-c3ccccc3)nc12` was 0%; that for `CN(C)S(=O)(=O)c1cc(-c2ccc3nccc(-c4cccc(S(N)(=O)=O)c4)c3c2)cnc1N` was 60%. As to `O=c1cc(N2CCOCC2)nc2n(Cc3cccc(Cl)c3Cl)c3ccccc3n12`, the “MOTILITY REDUCTION/CYTOTOXICITY” value came out at 0%. The value for `Fc1cc(Cl)ccc1Nc1ccnc2cc(-c3ccc(CN4CCOCC4)o3)ccc12` was 0%; that for `NC(CNC(=O)c1cc(Br)c(-c2ccnc3[nH]ccc23)s1)c1ccccc1` (centres undefined) was 40%. Under `COC(=O)c1cccc(NC(=O)NC2CCN(c3ccnc(NCc4ccc(F)cc4)n3)CC2)c1` stands 20%.

On to `COc1ccc(NC(=O)Nc2ccc(C)c(-c3ccc(C(=O)Nc4ccncc4)cc3)c2)cc1`, for which the “MOTILITY REDUCTION/CYTOTOXICITY” value was determined as 80%. The value for `c1ccc(-c2cc3ccncc3cc2OC2CCNCC2)cc1` was 93.4%; that for `Cc1ccc(C)c(NC(=O)NCCNc2ccnc(Nc3ccc(F)cc3)n2)c1` was 86.7%; that for `Nc1nccc2scc(-c3ccc4c(c3)CCN4C(=O)Cc3cc(F)ccc3F)c12` was 0%. Under `Cc1ccc(O)cc1Nc1ccnc2ccc(C(C)(C)C)cc12` stands 100%. The value for `CN(C)c1cc(-c2ccc3c(N)n[nH]c3c2)nc(N)n1` was 0%; that for `O=C(Nc1ccc2c(c1)OCO2)NC1CCN(c2ccnc(NCc3ccc(F)cc3)n2)CC1` was 33.4%; that for `COc1cc2ncnc(Nc3ccc4nc(-c5ccccc5)[nH]c4c3)c2cc1OC` was 73.4%. For the molecule `Clc1ccc(-c2cc(-c3c[nH]nc3-c3ccccn3)ccn2)cc1`, the “MOTILITY REDUCTION/CYTOTOXICITY” value came to 0%. The value for `Cn1ccc(-c2cccc(Nc3ccnc4cc(-c5nccs5)ccc34)c2)n1` was 0%; that for `COc1nccc(-c2c(-c3ccc(F)cc3)ncn2CCCN2CCOCC2)n1` was 0%; that for `COc1cc(Nc2nccc(N3CCC(NS(=O)(=O)c4ccc(NC(C)=O)cc4)CC3)n2)cc(OC)c1OC` was 33.4%. The value for `CS(=O)(=O)CCNCc1nc(-c2ccc3ncnc(Nc4ccc(OCc5ccccc5)c(Cl)c4)c3c2)cs1` was 0%; that for `Nc1nc(-c2ccc3c(N)n[nH]c3c2)cc(N2CCCCC2)n1` was 0%. The value for `OCCCNc1nccc(-c2c(-c3cccc(C(F)(F)F)c3)nn3cc(C(F)(F)F)ccc23)n1` was 0%. On to `CCn1c(-c2nonc2N)nc2c(C#CC(C)(C)O)ncc(OCCCCN)c21`, for which the “MOTILITY REDUCTION/CYTOTOXICITY” value is reported as 13.4%. Under `Cc1ccc(Nc2ccnc(Nc3ccc4c(c3)CS(=O)(=O)C4)n2)cc1O` stands 80%; under `CCn1c(-c2nonc2N)nc2c(-c3ccccc3)ncc(OCCCN)c21`, 100%; under `O=C(Nc1cccc(-c2nn3ncccc3c2-c2ccnc(Nc3ccccc3)n2)c1)c1c(F)cccc1F`, 0%. The value for `O=c1[nH]cc(-c2ccc(O)cc2)c2sc(-c3ccncc3)cc12` was 0%.

In the case of `CCCc1ccc(S(=O)(=O)NC2CCN(c3ccnc(Nc4ccc(F)cc4)n3)C2)cc1` (centres undefined), the “MOTILITY REDUCTION/CYTOTOXICITY” value was found to be 0%. Under `NC(=O)c1cccc(Nc2nccc(Nc3ccc(Oc4c(Cl)cccc4Cl)c(Cl)c3)n2)c1` stands 0%; under `O=C1NC(=O)C(c2ccc(Cl)cc2)=C1Nc1ccccc1`, 33.4%. The value for `Cc1nn2c(=O)cc(N3CCOCC3)nc2n1Cc1cccc(Cl)c1Cl` was 0%. Consider `CC(C)Nc1cc(-c2ccc3c(N)n[nH]c3c2)nc(N)n1`, for which the “MOTILITY REDUCTION/CYTOTOXICITY” value is 60%.

As to `CCS(=O)(=O)c1ccc(OC)c(Nc2ncc(-c3ccc(F)cc3)o2)c1`, the “MOTILITY REDUCTION/CYTOTOXICITY” value is given as 0%.

`CNc1nccc(-c2c(-c3ccc(F)cc3)ncn2CCCN2CCOCC2)n1`: the “MOTILITY REDUCTION/CYTOTOXICITY” value came out at 0%. `O=C(Nc1cccc(-c2nn3ccccc3c2-c2ccnc(Nc3cccc(F)c3)n2)c1)c1c(F)ccc(F)c1Cl`: the “MOTILITY REDUCTION/CYTOTOXICITY” value was determined as 0%. As for `COc1cc(Nc2nccc(N3CCC(NC(=O)Nc4cc(C)ccc4C)C3)n2)cc(OC)c1OC` (centres undefined), the “MOTILITY REDUCTION/CYTOTOXICITY” value is recorded as 0%. Under `O=C(Nc1n[nH]c2nc(-c3ccccc3)c(Cl)cc12)C1CC1` stands 0%; under `Cc1ccc(NC(=O)c2cccc(N3CCCCC3)c2)cc1-c1ccc(C(=O)NCC2CC2)cc1`, 20%. Under `O=C(Nc1ccc2c(c1)OCO2)NC1CCN(c2ccnc(Nc3ccc(F)cc3)n2)C1` (centres undefined) stands 33.4%; under `Cn1cc(-c2ccc3c(c2)CCN3C(=O)Cc2cc(F)cc(C(F)(F)F)c2)c2c(N)ncnc21`, 0%. Under `CNC(=O)c1ccccc1Nc1nc(Nc2cccc(CS(C)(=O)=O)c2)ncc1C` stands 33.4%; under `O=C1NC(=O)C(c2ccc(Cl)cc2)=C1Nc1ccc(O)cc1`, 0%. With `Nc1ncc(-c2ccc3nccc(-c4ccncc4)c3c2)cc1S(=O)(=O)N1CCOCC1`, the “MOTILITY REDUCTION/CYTOTOXICITY” value amounted to 40%.

Take `CC(C)(C)c1ccc2nccc(Nc3cccc(O)c3)c2c1`: the “MOTILITY REDUCTION/CYTOTOXICITY” value turned out to be 100%.

Regarding `O=C(Nc1[nH]nc2cc(-c3ccccc3F)ccc12)C1CC1`, the “MOTILITY REDUCTION/CYTOTOXICITY” value was determined as 0%.

Take `Cc1ccc(NC(=O)Nc2cccc(Cl)c2)cc1-c1ccc(C(=O)Nc2ccncc2)cc1`: the “MOTILITY REDUCTION/CYTOTOXICITY” value is reported as 33.4%. Under `Nc1nc(-c2ccc3c(N)n[nH]c3c2)cc(N2CCCC2)n1` stands 0%; under `Cc1ccc(NC(=O)Nc2ccccc2F)cc1-c1ccc(C(=O)Nc2ccncc2)cc1`, 53.4%. Under `CSc1cccc2c(-c3ccncn3)c(-c3ccc(F)cc3)nn12` stands 33.4%; under `O=C(Nc1ccccc1F)NC1CCN(c2ccnc(Nc3ccc(F)cc3)n2)CC1`, 53.4%; under `Nc1nccc2scc(-c3ccc4c(c3)CCN4C(=O)Cc3ccccc3)c12`, 0%. Under `Oc1cc(-c2nc(-c3ccccc3)[nH]c2-c2ccncc2)ccc1Cl` stands 0%; under `Fc1cccc(COc2ccc(Nc3ncnc4nn5ccccc5c34)cc2Cl)c1`, 0%. For the molecule `COC(=O)Nc1nc2ccc(Oc3ccc(CC(=O)Nc4cc(C(F)(F)F)ccc4F)cc3)cc2[nH]1`, the “MOTILITY REDUCTION/CYTOTOXICITY” value stood at 33.4%.
